Assays:
YTHDF1 (361-559) = molecular target: T1, YTHDF1 (361-559) (Homo sapiens, UniProt Q9BYJ9); experiment: Isothermal Titration Calorimetry (ITC); format: binding; conditions: 25° C.
T1 construct: GST (N, cleaved yes); made in house; host or cells: E. coli BL21 (DE3)
T1 sequence (Q9BYJ9 with tags, fused parts or gaps): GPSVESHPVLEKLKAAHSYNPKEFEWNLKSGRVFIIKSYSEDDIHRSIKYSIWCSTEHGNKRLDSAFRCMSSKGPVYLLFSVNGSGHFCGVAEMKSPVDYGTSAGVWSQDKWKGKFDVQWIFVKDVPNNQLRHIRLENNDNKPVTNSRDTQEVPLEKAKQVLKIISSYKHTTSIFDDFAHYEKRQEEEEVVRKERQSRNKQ
Description: Purified YTHDF1 (361-559) was dialyzed at 4° C. overnight in dialysis buffer (20 mM Hepes (pH 7.4) and 200 mM NaCl). Then dialyzed protein was diluted to 50 μM with dialysis buffer. […] Isothermal titration calorimetry (ITC) was conducted on a Microcal ITC 200 isothermal titration calorimeter (GE Healthcare) at 25° C. 200 μL 50 μM YTHDF1 (361-559) was filled in the sample cell and constantly stirred at 750 rpm; 40 μL 1 mM SAA was filled in the syringe. […] Then in order to make the titration effect more obvious, the nineteen […] injections were changed after calculation into five 2.5 μL injections followed by fourteen 1.9 μL injections. […] The experimental data was analyzed via Microcal ORIGIN (v7.0) software (Microcal Software).
Then, the binding affinity between SAA and YTHDF1 was evaluated. The Isothermal Titration Calorimetry (ITC) assay was performed to accurately test the equilibrium dissociation constants (Kd) between YTHDF1 and SAA. The ITC assay was conducted on a Microcal iTC200 isothermal titration calorimeter (GE Healthcare) for three times independently. Briefly, freshly purified YTHDF1 (50 μM) was titrated with 1 mM SAA at 25° C. in a buffer comprising 20 mM Hepes (pH 7.4) and 200 mM NaCl.

YTHDF1 mutant F382A = molecular target: T2, YTHDF1 mutant F382A (Homo sapiens, UniProt Q9BYJ9, F382A); experiment: FP assay with YTHDF1 mutant F382A; format: binding
T2 construct: GST (N, cleaved yes); made in house; host or cells: E. coli BL21 (DE3)
Description: The protein YTHDF1 (361-559) (SEQ ID NO: 2) and its mutants (SEQ ID NOs: 4-13) were cloned into pGEx-6P-1 vector (obtained from YouBio Co, Ltd, Catalog NO: VT1258), and the His-YTHDF1 (361-559) (SEQ ID NO: 3) used in AlphaScreen Assay was cloned into modified pET28a vector (obtained from YouBio Co, Ltd, Catalog NO: VT1207). The vectors were transformed into E. coli BL21 (DE3) cells and cultured at 37° C. When OD value reached 0.6˜0.8, 1 mM Isopropyl-β-D-thiogalactopyranoside was added to overexpress the protein at 16° C. overnight. […] Then, the proteins were further purified via cation exchange (HiTrap SP, GE Healthcare) and finally through a Superdex 75 10/300 column (GE Healthcare). At last, the purified YTHDF1(361-559) and the mutants were kept in buffer which contains 20 mM Hepes (pH 7.4) and 200 mM NaCl. For His-YTHDF1 (361-559), the protein was purified via Ni-NTA chromatography (HisTrap FF, GE Healthcare), followed by cation exchange and Superdex 75 10/300 column in sequence. And the obtained protein was kept in the buffer with the same ingredients.
All of the YTHDF1 (361-559), the 5′-FAM labeled m^6A-containing mRNA (5′-FAM-[…] (m^6A) CUGUG-3′, SEQ ID NO: 14) and the candidate compounds were diluted with assay buffer (20 mM Hepes (pH 7.4), 50 mM NaCl, 0.01% (v/v) tween 20, 5% (v/v) glycerol). […] At last, the mixtures were measured by Envision Readers (PerkinElmer). […]

[1] = tested on: classical DCs in draining lymph node; experiment: Ex vivo direct-priming by DCs sorted from draining lymph node of treated mice with OT-I peptide; format: in vivo, mouse; conditions: four DC subtypes from SAA treated mice, 1 μg/mL OT-I peptide
Description: For in vitro cross-presentation study, mature FLT3L-DCs were harvested on day 9 and purified by EasySep Mouse CD11 c Positive Selection Kit II, then treated with 10 μM SAA or DMSO in IMDM medium (contain 10% bovine and 100 ng/mL FLT3L) for 10 h. […] Then antigen-obtained DCs were purified and co-cultured with naïve T cells from OT-1 mice at a ratio of 1:10 for 96 h. The co-culture medium was 1640 RPMI contains 10% fetal bovine with or without 1 μg/mL OT-1 (OVA 257-264) peptide. For ex vivo DCs cross-presentation assay, four types of DCs (migration CD11b DC, migration CD103′ DC, resident CD11b DC and resident CD8^+ DC) were sorted in draining lymph node from SAA treated B16-OVA bearing mice at day 12. These DCs were co-cultured with OT-1 naïve T cells in the ratio of 1:10 for 96 hours with or without OT-1 peptide. Supernatant IFN-γ production was detected via CBA assay.
Dendritic cells can activate T cells through cross-priming and/or direct-priming. In direct-priming process, DCs could stimulate T cells via surface co-stimulatory molecules such as CD80/CD86 or cytokines related with T cell activation. […] IFN-γ production was assessed by IFN-γ cytometric bead array. […] Then, IFN-γ production was assessed by IFN-γ cytometric bead array.

T2 sequence (Q9BYJ9 with tags, fused parts or gaps F382A): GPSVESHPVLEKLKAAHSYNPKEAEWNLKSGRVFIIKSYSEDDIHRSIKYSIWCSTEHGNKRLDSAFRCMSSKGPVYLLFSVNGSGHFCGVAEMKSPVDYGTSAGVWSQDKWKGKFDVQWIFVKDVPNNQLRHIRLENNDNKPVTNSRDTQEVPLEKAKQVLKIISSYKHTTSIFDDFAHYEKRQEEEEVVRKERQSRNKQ

- entropy change ΔS (YTHDF1 (361-559)): 13.6 cal/mol/deg
- Kd (YTHDF1 (361-559); 50 μM YTHDF1 titrated with 1 mM SAA): 5.71 µM
Compound: O=C(/C=C/c1ccc(O)c(O)c1/C=C/c1ccc(O)c(O)c1)O[C@H](Cc1ccc(O)c(O)c1)C(=O)O [SAA, Salvianolic Acid A]
- inhibitory activity against mutant binding to m6A versus wildtype (YTHDF1 mutant F382A): significantly weaker than that against wildtype YTHDF1
- direct-priming capacity of DC subtypes (IFN-γ production) [1]: 3 of the 4 DC subtypes showed improved direct-priming capacity

Source: US20240033244A1, “COMPOSITIONS AND METHODS FOR INHIBITING YTHDF1” (SHANGHAI INSTITUTE OF MATERIA MEDICA, CHINESE ACADEMY OF …, priority 2020, published 2024)
